Source: patent US20180265515A1 (Genentech, Inc., priority 2015, published 2018)

Tests used:
[1] = target: T1, isolated recombinant JAK1 kinase domain (Homo sapiens, UniProt P23458); assay: JAK1 enzyme assay (Caliper LabChip, Ki); assay type: biochemical; settings: recombinant JAK1 kinase domain, 25 μM ATP
T1 construct: The activity of the isolated recombinant JAK1 and JAK2 kinase domain was measured
Procedure, shortened: (§1)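 Recombinant JAK1 or JAK2 kinase domain phosphorylating a 5-carboxyfluorescein-labelled JAK3-derived peptide, 30 min at 22° C, stopped with EDTA. Phosphorylated fraction of substrate quantified by Caliper LabChip microfluidic separation. Ki from Morrison tight-binding model corrected for ATP competition (Ki=Ki,app/(1+[ATP]/Km,app)).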

[2] = system: JAK1-dependent STAT6 phosphorylation downstream of IL-13 stimulation in BEAS-2B human bronchial epithelial cells; assay: JAK1 pathway assay in BEAS-2B cells (IL-13 stimulated STAT6 phosphorylation, MSD); assay type: cell-based; settings: read-out: P-STAT6 BEAS2B + IL13 IC50
Procedure, shortened: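 BEAS-2B human bronchial epithelial cells, plated the day before in complete growth medium, were preincubated with compound for 1 hr at 37° C (0.2% DMSO final), then stimulated with IL-13 at its EC90 for 15 min. STAT6 phosphorylation in lysates was read by MSD; EC50 was taken as 50% inhibition versus DMSO control.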

[3] = target: T2, isolated recombinant JAK2 kinase domain (Homo sapiens, UniProt O60674); assay: JAK2 enzyme assay (Caliper LabChip, Ki); assay type: biochemical; settings: 25 μM ATP
T2 construct: The activity of the isolated recombinant JAK1 and JAK2 kinase domain was measured
T2 sequence (O60674 849-1124 limits assumed): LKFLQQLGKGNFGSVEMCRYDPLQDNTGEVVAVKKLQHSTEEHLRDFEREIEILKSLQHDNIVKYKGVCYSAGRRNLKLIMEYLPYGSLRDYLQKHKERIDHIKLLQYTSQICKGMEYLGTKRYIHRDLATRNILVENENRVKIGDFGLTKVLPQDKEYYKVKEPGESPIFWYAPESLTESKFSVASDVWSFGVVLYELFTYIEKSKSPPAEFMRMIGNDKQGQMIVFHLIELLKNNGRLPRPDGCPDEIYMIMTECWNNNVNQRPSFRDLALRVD
Procedure, shortened: as §1

T1 sequence (P23458 875-1153 limits assumed): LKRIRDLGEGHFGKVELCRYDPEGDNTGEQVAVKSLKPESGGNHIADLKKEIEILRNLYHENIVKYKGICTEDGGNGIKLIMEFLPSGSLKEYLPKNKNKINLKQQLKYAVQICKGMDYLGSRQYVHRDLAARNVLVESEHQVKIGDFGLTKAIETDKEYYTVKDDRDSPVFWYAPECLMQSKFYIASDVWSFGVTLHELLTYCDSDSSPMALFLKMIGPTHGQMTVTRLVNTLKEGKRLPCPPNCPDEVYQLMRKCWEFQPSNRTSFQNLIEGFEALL

Structure (SMILES)	Ki [1]	Ki [3]	IC50 [2]
CSc1ccc(OC(F)F)c(-c2nn(CC(=O)N3CCN(C4CCOC4)CC3)cc2NC(=O)c2cnn3cccnc23)c1 (stereo not drawn) [Example 54, N-[3-[2-(difluoromethoxy)-5-methylsulfanyl-phenyl]-1-[2-oxo-2-(4-tetrahydrofuran-3-ylpiperazin-1-yl)ethyl]pyrazol-4-yl]pyrazolo[1,5-a]pyrimidine-3-carboxamide]	0.23 nM	0.31 nM	12 nM
CSc1ccc(OC(F)F)c(-c2nn(CC(=O)N3CCC(N4CCC[C@H](C#N)C4)CC3)cc2NC(=O)c2cnn3cccnc23)c1 [Example 55, N-[1-(2-[4-[(3 S)-3-cyanopiperidin-1-yl]piperidin-1-yl]-2-oxoethyl)-3-[2-(difluoromethoxy)-5-(methylsulfanyl)phenyl]-1H-pyrazol-4-yl]pyrazolo[1,5-a]pyrimidine-3-carboxamide]	0.27 nM	0.52 nM	11 nM
CSc1ccc(OC(F)F)c(-c2nn(CC(=O)N3CCC(N4CCC[C@@H](C#N)C4)CC3)cc2NC(=O)c2cnn3cccnc23)c1 [Example 58, N-[1-(2-[4-[(3R)-3-cyanopiperidin-1-yl]piperidin-1-yl]-2-oxoethyl)-3-[2-(difluoromethoxy)-5-(methylsulfanyl)phenyl]-1H-pyrazol-4-yl]pyrazolo[1,5-a]pyrimidine-3-carboxamide]	0.2 nM	0.33 nM	13 nM
CSc1ccc(OC(F)F)c(-c2nn(CC(=O)N3CCC(N4CCOC[C@@H]4C)CC3)cc2NC(=O)c2cnn3cccnc23)c1 [Example 61, N-[3-[2-(difluoromethoxy)-5-methylsulfanyl-phenyl]-1-[2-[4-[(3S)-3-methylmorpholin-4-yl]-1-piperidyl]-2-oxo-ethyl]pyrazol-4-yl]pyrazolo[1,5-a]pyrimidine-3-carboxamide]	0.25 nM	0.48 nM	13 nM
CSc1ccc(OC(F)F)c(-c2nn(CC(=O)N3CCC(N4CCS(=O)(=O)CC4)CC3)cc2NC(=O)c2cnn3cccnc23)c1 [Example 62, N-[3-[2-(difluoromethoxy)-5-methylsulfanyl-phenyl]-1-[2-[4-(1,1-dioxo-1,4-thiazinan-4-yl)-1-piperidyl]-2-oxo-ethyl]pyrazol-4-yl]pyrazolo[1,5-a]pyrimidine-3-carboxamide]	0.27 nM	0.38 nM	160 nM
CSc1ccc(OC(F)F)c(-c2nn(CC(=O)N3CCC(N4CCN(C)CC4)CC3)cc2NC(=O)c2cnn3cccnc23)c1 [Example 63, N-[3-[2-(difluoromethoxy)-5-(methylsulfanyl)phenyl]-1-[2-[4-(4-methylpiperazin-1-yl)piperidin-1-yl]-2-oxoethyl]-1H-pyrazol-4-yl]pyrazolo[1,5-a]pyrimidine-3-carboxamide]	0.35 nM	0.7 nM	22 nM
CSc1ccc(OC(F)F)c(-c2nn(CC(=O)N3CCN(CC4CCOCC4)CC3)cc2NC(=O)c2cnn3cccnc23)c1 [Example 65, N-[3-[2-(difluoromethoxy)-5-methylsulfanyl-phenyl]-1-[2-oxo-2-[4-(tetrahydropyran-4-ylmethyl)piperazin-1-yl]ethyl]pyrazol-4-yl]pyrazolo[1,5-a]pyrimidine-3-carboxamide]	0.41 nM	0.49 nM	15 nM
CSc1ccc(OC(F)F)c(-c2nn(CC(=O)N3CCN(C4CCSCC4)CC3)cc2NC(=O)c2cnn3cccnc23)c1 [Example 66, N-[3-[2-(difluoromethoxy)-5-methylsulfanyl-phenyl]-1-[2-oxo-2-(4-tetrahydrothiopyran-4-ylpiperazin-1-yl)ethyl]pyrazol-4-yl]pyrazolo[1,5-a]pyrimidine-3-carboxamide]	0.2 nM	0.24 nM	5 nM

The remaining compounds from weak to strong by Ki [1], led by results:

Ki [1]	Ki [3]	Structure (SMILES)	IC50 [2]
0.41 nM	0.48 nM	CSc1ccc(OC(F)F)c(-c2nn(CC(=O)N3C[C@@H]4CCN[C@@H]4C3)cc2NC(=O)c2cnn3cccnc23)c1 [Example 56, N-[1-[2-[(3aS,6aS)-2,3,3a,4,6,6a-hexahydro-1H-pyrrolo[2,3-c]pyrrol-5-yl]-2-oxo-ethyl]-3-[2-(difluoromethoxy)-5-methylsulfanyl-phenyl]pyrazol-4-yl]pyrazolo[1,5-a]pyrimidine-3-carboxamide]	84 nM
0.33 nM	0.48 nM	CSc1ccc(OC(F)F)c(-c2nn(CC(=O)N3CCC(NCCCC#N)CC3)cc2NC(=O)c2cnn3cccnc23)c1 [Example 64, N-[1-[2-[4-(3-cyanopropylamino)-1-piperidyl]-2-oxo-ethyl]-3-[2-(difluoromethoxy)-5-methylsulfanyl-phenyl]pyrazol-4-yl]pyrazolo[1,5-a]pyrimidine-3-carboxamide]	52 nM
0.31 nM	0.52 nM	CSc1ccc(OC(F)F)c(-c2nn(CC(=O)N3CCC(N(C)[C@@H]4CCOC4)CC3)cc2NC(=O)c2cnn3cccnc23)c1 [Example 60, N-[3-[2-(difluoromethoxy)-5-methylsulfanyl-phenyl]-1-[2-[4-[methyl-[(3R)-tetrahydrofuran-3-yl]amino]-1-piperidyl]-2-oxo-ethyl]pyrazol-4-yl]pyrazolo[1,5-a]pyrimidine-3-carboxamide]	14 nM
0.29 nM	0.44 nM	CNC(=O)[C@@H]1CCCN1C1CCN(C(=O)Cn2cc(NC(=O)c3cnn4cccnc34)c(-c3cc(SC)ccc3OC(F)F)n2)CC1 [Example 52, N-[3-[2-(difluoromethoxy)-5-methylsulfanyl-phenyl]-1-[2-[4-[(2S)-2-(methylcarbamoyl)pyrrolidin-1-yl]-1-piperidyl]-2-oxo-ethyl]pyrazol-4-yl]pyrazolo[1,5-a]pyrimidine-3-carboxamide]	43 nM
0.27 nM	0.32 nM	CSc1ccc(OC(F)F)c(-c2nn(CC(=O)N3CCN(C4CCOCC4)CC3)cc2NC(=O)c2cnn3cccnc23)c1 [Example 53, N-[3-[2-(difluoromethoxy)-5-methylsulfanyl-phenyl]-1-[2-oxo-2-(4-tetrahydropyran-4-ylpiperazin-1-yl)ethyl]pyrazol-4-yl]pyrazolo[1,5-a]pyrimidine-3-carboxamide]	12 nM
0.26 nM	0.43 nM	CSc1ccc(OC(F)F)c(-c2nn(CC(=O)N3CCC(N4CCOC[C@H]4C)CC3)cc2NC(=O)c2cnn3cccnc23)c1 [Example 57, N-[3-[2-(difluoromethoxy)-5-methylsulfanyl-phenyl]-1-[2-[4-[(3R)-3-methylmorpholin-4-yl]-1-piperidyl]-2-oxo-ethyl]pyrazol-4-yl]pyrazolo[1,5-a]pyrimidine-3-carboxamide]	18 nM
0.2 nM	0.34 nM	CSc1ccc(OC(F)F)c(-c2nn(CC(=O)N3CCC(N4CC(C#N)C4)CC3)cc2NC(=O)c2cnn3cccnc23)c1 [Example 59, N-[1-[2-[4-(3-cyanoazetidin-1-yl)-1-piperidyl]-2-oxo-ethyl]-3-[2-(difluoromethoxy)-5-methylsulfanyl-phenyl]pyrazol-4-yl]pyrazolo[1,5-a]pyrimidine-3-carboxamide]	15 nM
0.19 nM	0.27 nM	CSc1ccc(OC(F)F)c(-c2nn(CC(=O)N3CC=CCC3)cc2NC(=O)c2cnn3cccnc23)c1 [Example 67, N-[3-[2-(difluoromethoxy)-5-methylsulfanyl-phenyl]-1-[2-(3,6-dihydro-2H-pyridin-1-yl)-2-oxo-ethyl]pyrazol-4-yl]pyrazolo[1,5-a]pyrimidine-3-carboxamide]	8.9 nM
